Measurements as given in patent US9573956B2, “Compounds as dual inhibitors of phosphodiesterases and histone deacetylases” (FUNDACIÓN PARA LA INVESTIGACIÓN MÉDICA APLICADA, priority 2013, dated 2017).
Marks after values point to notes of the source that are not given here.

Legend:
HDAC3 = biological target: T1, HDAC3 (Homo sapiens, UniProt O15379); test: HDAC enzyme activity assay (fluorogenic substrate), HDAC3; assay type: biochemical; conditions: recombinant enzyme; read-out: HDAC3 inhibition (IC50)
T1 construct: is full-length with C-terminal his tag and human NCOR2, N-terminal GST tag; His (C); purchased BPS Biosciences 50003; host or cells: baculovirus infected Sf9 cells
T1 sequence (O15379 whole entry): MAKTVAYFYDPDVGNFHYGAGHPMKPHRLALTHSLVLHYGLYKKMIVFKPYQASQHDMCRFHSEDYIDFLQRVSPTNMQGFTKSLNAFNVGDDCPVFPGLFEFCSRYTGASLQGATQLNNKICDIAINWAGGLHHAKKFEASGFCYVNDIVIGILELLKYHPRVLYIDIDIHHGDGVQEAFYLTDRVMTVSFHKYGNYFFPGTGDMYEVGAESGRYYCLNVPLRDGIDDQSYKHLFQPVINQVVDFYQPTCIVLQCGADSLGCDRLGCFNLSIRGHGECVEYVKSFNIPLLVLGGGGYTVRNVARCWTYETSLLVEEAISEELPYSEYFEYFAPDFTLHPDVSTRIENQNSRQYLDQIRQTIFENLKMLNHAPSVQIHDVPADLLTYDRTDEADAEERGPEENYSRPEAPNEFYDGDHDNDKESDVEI
T1 sequence (Q9Y618 395-489 partner limits assumed): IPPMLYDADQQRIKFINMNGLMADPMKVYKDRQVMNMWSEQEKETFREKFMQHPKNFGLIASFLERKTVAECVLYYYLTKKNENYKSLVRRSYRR

HDAC6 = biological target: T2, HDAC6 (Homo sapiens, UniProt Q9UBN7); test: HDAC enzyme activity assay (fluorogenic substrate), HDAC6; assay type: biochemical; conditions: recombinant enzyme; read-out: HDAC6 inhibition (IC50)
T2 construct: BC069243; Cat. #50006) is full-length with N-terminal GST tag; GST (N); purchased BPS Biosciences 50006; host or cells: baculovirus infected Sf9 cells
T2 sequence (Q9UBN7 1-1215): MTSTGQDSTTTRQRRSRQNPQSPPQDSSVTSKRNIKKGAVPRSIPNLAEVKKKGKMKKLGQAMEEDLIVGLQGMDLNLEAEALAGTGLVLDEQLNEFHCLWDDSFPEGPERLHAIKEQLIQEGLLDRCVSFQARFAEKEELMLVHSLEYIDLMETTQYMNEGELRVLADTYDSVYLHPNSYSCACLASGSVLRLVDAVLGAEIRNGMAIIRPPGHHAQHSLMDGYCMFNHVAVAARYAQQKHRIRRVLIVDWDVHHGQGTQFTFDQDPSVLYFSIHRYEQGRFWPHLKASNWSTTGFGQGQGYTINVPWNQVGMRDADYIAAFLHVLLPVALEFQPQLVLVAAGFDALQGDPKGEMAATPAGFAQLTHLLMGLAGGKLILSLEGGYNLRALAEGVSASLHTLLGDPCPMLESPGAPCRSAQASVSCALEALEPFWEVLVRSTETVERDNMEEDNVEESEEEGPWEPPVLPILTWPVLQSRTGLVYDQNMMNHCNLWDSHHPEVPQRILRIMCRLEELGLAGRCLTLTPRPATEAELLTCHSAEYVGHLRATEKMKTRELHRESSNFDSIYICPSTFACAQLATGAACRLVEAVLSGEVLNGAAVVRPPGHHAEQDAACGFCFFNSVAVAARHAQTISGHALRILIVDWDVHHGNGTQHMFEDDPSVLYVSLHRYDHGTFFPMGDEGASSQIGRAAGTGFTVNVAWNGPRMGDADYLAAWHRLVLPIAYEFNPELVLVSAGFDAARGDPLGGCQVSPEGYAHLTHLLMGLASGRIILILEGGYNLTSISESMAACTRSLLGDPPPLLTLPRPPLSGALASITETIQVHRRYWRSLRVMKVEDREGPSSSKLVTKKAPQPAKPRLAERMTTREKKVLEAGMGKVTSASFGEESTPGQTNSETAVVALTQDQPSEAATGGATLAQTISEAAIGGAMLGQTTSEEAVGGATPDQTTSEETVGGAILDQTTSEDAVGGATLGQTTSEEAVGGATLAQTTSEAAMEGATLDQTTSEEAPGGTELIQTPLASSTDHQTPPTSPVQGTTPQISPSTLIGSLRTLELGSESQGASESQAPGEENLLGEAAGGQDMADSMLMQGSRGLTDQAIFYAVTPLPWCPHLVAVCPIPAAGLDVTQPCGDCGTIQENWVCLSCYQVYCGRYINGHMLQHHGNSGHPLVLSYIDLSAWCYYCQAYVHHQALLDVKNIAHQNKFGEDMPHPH

PDE5A = biological target: T3, PDE5A (Homo sapiens, UniProt O76074); test: PDE enzyme activity assay (HTRF cGMP), PDE5A; assay type: biochemical; conditions: recombinant enzyme; read-out: PDE5A1 inhibition (IC50)
T3 construct: they are full-length with N-terminal GST tag; GST (N); purchased BPS Biosciences 60050; host or cells: baculovirus infected Sf9 cells

HDAC1 = HDAC1 (Homo sapiens, UniProt Q13547); test: HDAC enzyme activity assay (fluorogenic substrate), HDAC1; assay type: biochemical; conditions: recombinant enzyme; read-out: HDAC1 inhibition (IC50)
HDAC1, sequence (Q13547 whole entry): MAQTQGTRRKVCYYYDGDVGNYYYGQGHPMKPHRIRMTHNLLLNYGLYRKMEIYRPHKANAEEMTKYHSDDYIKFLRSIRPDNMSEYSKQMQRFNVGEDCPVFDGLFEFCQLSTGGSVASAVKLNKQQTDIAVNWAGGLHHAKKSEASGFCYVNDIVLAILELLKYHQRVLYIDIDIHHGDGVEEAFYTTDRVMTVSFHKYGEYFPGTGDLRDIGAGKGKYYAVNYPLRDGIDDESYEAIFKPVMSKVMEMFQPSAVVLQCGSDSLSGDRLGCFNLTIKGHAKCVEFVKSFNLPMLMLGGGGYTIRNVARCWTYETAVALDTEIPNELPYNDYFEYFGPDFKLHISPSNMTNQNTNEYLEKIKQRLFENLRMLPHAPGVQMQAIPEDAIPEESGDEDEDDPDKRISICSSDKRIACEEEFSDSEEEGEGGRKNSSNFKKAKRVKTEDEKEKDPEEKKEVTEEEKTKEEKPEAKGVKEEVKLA

HDAC2 = biological target: T4, HDAC2 (Homo sapiens, UniProt Q92769); test: HDAC enzyme activity assay (fluorogenic substrate), HDAC2; assay type: biochemical; conditions: recombinant enzyme; read-out: HDAC2 inhibition (IC50)
T4 construct: NM_001527; Cat. #50002) is full-length with C-terminal his tag; His (C); purchased BPS Biosciences 50002; host or cells: baculovirus infected Sf9 cells
T4 sequence (Q92769 whole entry): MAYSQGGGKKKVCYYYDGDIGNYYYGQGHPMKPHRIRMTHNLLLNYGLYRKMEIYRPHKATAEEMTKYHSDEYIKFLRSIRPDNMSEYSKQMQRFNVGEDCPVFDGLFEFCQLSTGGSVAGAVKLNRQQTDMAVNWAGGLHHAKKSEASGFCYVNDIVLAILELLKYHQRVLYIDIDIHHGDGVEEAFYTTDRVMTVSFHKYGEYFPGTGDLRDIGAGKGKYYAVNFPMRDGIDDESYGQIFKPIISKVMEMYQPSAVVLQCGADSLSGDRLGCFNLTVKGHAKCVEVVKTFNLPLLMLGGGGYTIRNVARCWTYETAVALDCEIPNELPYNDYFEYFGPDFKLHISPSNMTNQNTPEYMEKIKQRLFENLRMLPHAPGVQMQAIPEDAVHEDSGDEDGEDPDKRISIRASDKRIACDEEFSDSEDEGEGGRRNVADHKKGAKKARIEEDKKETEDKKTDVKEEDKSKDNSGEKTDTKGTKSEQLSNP

PDE9A isoform b = biological target: T5, PDE9A isoform b (Homo sapiens, UniProt O76083); test: PDE enzyme activity assay (HTRF cGMP), PDE9A; assay type: biochemical; conditions: recombinant enzyme; read-out: PDE9A inhibition (IC50)
T5 construct: they are full-length with N-terminal GST tag; GST (N); purchased BPS Biosciences 60090; host or cells: baculovirus infected Sf9 cells
T5 sequence (O76083 1-533 isoform O76083-2): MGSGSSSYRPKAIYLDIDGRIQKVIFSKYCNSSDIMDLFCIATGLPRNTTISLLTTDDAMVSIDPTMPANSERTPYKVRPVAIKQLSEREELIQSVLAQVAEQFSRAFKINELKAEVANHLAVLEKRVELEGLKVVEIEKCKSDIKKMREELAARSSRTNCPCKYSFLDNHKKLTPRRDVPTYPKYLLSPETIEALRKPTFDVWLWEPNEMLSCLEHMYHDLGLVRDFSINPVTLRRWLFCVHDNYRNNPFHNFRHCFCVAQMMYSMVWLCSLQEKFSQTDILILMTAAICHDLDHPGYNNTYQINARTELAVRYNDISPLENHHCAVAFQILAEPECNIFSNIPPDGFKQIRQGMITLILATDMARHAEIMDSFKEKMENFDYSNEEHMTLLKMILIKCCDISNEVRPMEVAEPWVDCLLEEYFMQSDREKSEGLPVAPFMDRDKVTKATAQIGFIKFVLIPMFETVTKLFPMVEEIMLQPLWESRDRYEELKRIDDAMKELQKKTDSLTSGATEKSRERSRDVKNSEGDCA

AcH3 = test: In-vivo activity, hippocampus of wild type mice: AcH3; parameters: species or system mouse; conditions: i.p. 40 mg/kg, hippocampus one hour later
Method: (§1) To determine the ability of the compounds to inhibit HDAC and PDE in the brain, the compound was administered to wild type mice by i.p. at a dose of 40 mg/kg (n=3). Another group of animals received the vehicle (1/1/8, v:v:v, DMSO/Tween 20/saline). One hour later, mice were sacrificed by cervical dislocation and their hippocampus was quickly dissected from the brains.
(§2) Total tissue homogenates were obtained by homogenizing the hippocampus in a cold lysis buffer with protease inhibitors (0.2 M NaCl, 0.1 M HEPES, 10% glycerol, 200 mM NaF, 2 mM Na4P2O7, 5 mM EDTA, 1 mM EGTA, 2 mM DTT, 0.5 mM PMSF, 1 mM Na3VO4 and Complete Protease Inhibitor Cocktail, Roche Diagnostics). The homogenate was then centrifuged at 14,000×g at 4° C. for 20 min and the supernatant aliquoted and stored at −80° C. Total protein concentrations were determined using the BioRad Bradford protein assay (BioRad Laboratories). Protein samples were analyzed as described in the “in vitro” section.

pCREB [1] = test: In-vivo activity, hippocampus of wild type mice: pCREB; parameters: species or system mouse; conditions: i.p. 40 mg/kg, hippocampus one hour later
Method: as §1, §2

pCREB [2] = test: PDE activity in wild type primary neurons (Western blot pCREB); assay type: cell-based; conditions: Mus musculus, Neuron, 0.5 h, 30 min, EC50 = 50% increase in pCREB over basal
[3] = system: acetylated histone 3 at Lys9 (AcH3K9); test: HDAC activity in wild type primary neurons (Western blot AcH3K9); assay type: cell-based, mouse; conditions: Mus musculus, Neuron, 0.5 h, 30 min, EC50 = 50% increase in AcH3K9 over basal, read-out: AcH3 (EC50)
PDE4A1 = biological target: T6, PDE4A1 (Homo sapiens, UniProt P27815); test: PDE enzyme activity assay (HTRF cGMP), PDE4A1; assay type: biochemical; conditions: recombinant enzyme; read-out: PDE4A1 inhibition (IC50)
T6 construct: they are full-length with N-terminal GST tag; GST (N); purchased BPS Biosciences 60040; host or cells: baculovirus infected Sf9 cells
T6 sequence (P27815 1-647 isoform P27815-4): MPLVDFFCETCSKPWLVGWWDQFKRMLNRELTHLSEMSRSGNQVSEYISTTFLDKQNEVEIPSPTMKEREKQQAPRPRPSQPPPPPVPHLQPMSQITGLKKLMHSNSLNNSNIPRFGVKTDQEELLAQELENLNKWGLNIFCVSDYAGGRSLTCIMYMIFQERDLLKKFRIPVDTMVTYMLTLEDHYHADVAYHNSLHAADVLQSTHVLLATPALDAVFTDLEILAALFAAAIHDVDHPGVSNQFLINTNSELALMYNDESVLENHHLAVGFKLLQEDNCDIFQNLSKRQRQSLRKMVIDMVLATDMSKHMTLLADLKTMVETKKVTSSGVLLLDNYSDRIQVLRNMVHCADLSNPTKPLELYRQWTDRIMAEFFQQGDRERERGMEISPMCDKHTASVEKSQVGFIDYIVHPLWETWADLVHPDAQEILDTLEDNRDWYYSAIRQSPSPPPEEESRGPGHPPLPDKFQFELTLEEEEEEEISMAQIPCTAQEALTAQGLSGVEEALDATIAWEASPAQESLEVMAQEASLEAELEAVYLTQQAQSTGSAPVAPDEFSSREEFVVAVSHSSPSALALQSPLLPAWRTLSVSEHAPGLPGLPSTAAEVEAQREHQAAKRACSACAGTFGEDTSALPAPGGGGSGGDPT

[4] = Pharmacokinetics, plasma and brain concentrations in wild type mice; assay type: in vivo; conditions: mouse, ip
Method: Plasma and brain samples for measuring compounds concentrations were collected at predetermined times from four wild type mice per point. Three time points were measured: 0.25, 0.5 and 1.0 hour. Compounds concentration was measured using a Xevo-TQ MS triple quadropole mass spectrometer with an electrospray ionization (ESI) source and an Acquity UPLC (Waters, Manchester, UK).
[…]. Compounds were injected as a single intraperitoneal injection. Animals were killed by decapitation.
Plasma. Blood was collected into tubes containing EDTA and plasma was collected via centrifugation (4° C., 13200 rpm, 5 min) and stored at −80° C. until analysis.
Brain. Brains were collected immediately after mice death. The brains were excised, weighed and frozen at −80° C. until further process for analysis.
Chromatographic separation was performed by gradient elution at 0.4 mL/min using an Acquity UPLC BEH C18 column (100×2.1 mm, 1.7 μm particle size; Waters). The mobile phase consisted of A: water with 0.1% formic acid, B: methanol with 0.1% formic acid. After 1.5 min at the initial condition of 95% A, solvent B was increased from 5% to 100% over 2 min, maintained at 100% for 1.5 min, then a linear gradient to initial conditions was applied for 0.1 min and maintained for 3.4 minutes to re-equilibrate the column, giving a cycle time of 8.5 min. The autosampler temperature was set at 10° C. and column temperature at 45° C.
Compounds were monitored using a triple quadrupole mass spectrometer equipped with an electrospray ionization interface. For detection and quantification, a capillary voltage of 3.5 kV and a cone voltage of 38 V were used. Source and desolvation temperatures were 150° C. and 650° C., respectively. Ultra-high purity nitrogen was used for cone gas (75 L h^−1) and desolvation gas (1000 L h^−1). The electrospray ionization operated in the positive mode, and the collision gas used was ultra-pure argon at a flow rate of 0.15 mL min^−1.
Quantification was achieved by external calibration using matrix-matched standards. Concentrations were calculated using a weighted least-squares linear regression (W=1/×). […]. The mixture was then agitated for 10 min and centrifuged at 13200 rpm for 5 min at 4° C. The resulting supernatants were transferred to a Ostro plate (Waters, Manchester, UK), designed to remove phospholipids. The resulting eluents were evaporated at 37° C. under a stream of nitrogen. Residues were dissolved in 75 μL of a mixture of methanol and water (50:50, v:v). A 10-uL aliquot of the resulting solution was injected onto the LC-MS/MS system for analysis. Frozen plasma samples were thawed at room temperature, vortexed thoroughly and subjected to the above described extraction procedure. Brain samples were thawed unassisted at room temperature and homogenized using a Branson 250 ultrasonic sonifier (Branson, Danbury, Conn., USA). When homogenized, 75 mg were weighted and extracted as described previously.
Concentration values obtained from the LC-MS/MS analyses are described in Table 4.

IC50 (HDAC3) [nM]	IC50 (HDAC6) [nM]	IC50 (PDE5A) [nM]	IC50 (HDAC1) [nM]	IC50 (HDAC2) [nM]	IC50 (PDE9A isoform b) [µM]	EC50 (pCREB [2]) [nM]	EC50 [3] [nM]	IC50 (PDE4A1) [µM]	CMax (brain; nmol/Kg) ([4]; in vivo, 40 mg/kg)	Tmax ([4]; dosage 40 mg/Kg, single intraperitoneal injection, wild type mice, time of maximum concentration in brain) [min]	Cmax ([4]; plasma, dosage 40 mg/Kg, single intraperitoneal injection, wild type mice, at tMax, (Standard Deviation)) [nM]	SMILES	AcH3, increment in biological response vs basal (AcH3)	pCREB, increment in biological response vs basal (pCREB [1])
10 to 1000	10 to 1000	< 10	10 to 1000	10 to 1000	–	–	–	–	–	–	–	CCCc1nn(C)c2c(=O)[nH]c(-c3cc(NC4CCN(c5ncc(C(=O)NO)cn5)CC4)ccc3OCC)nc12 [Example 1-22, 2-[4-[4-ethoxy-3-(1-methyl-7-oxo-3-propyl-6H-pyrazolo[4,3-d]pyrimidin-5-yl)anilino]-1-piperidyl]pyrimidine-5-carbohydroxamic acid]	–	–
10 to 1000	10 to 1000	< 10	10 to 1000	10 to 1000	1 to 10	–	–	–	–	–	–	CCCc1nn(C)c2c(=O)[nH]c(-c3cc(S(=O)(=O)NC4CCN(c5ncc(C(=O)NO)cn5)CC4)ccc3OCC)nc12 [Example 1-07]	–	–
> 10000	10 to 1000	10 to 1000	> 10000	> 10000	–	–	–	–	–	–	–	CCCc1nn(C)c2c(=O)[nH]c(-c3cc(Cc4ccc(CC(=O)NO)cc4)ccc3OCC)nc12 [Example 1-18]	–	–
–	–	> 10000	–	–	> 10	–	–	–	–	–	–	O=C(CCCCCCC(=O)Nc1ccccc1)NO [Vorinostat, reference compound]	+++ (basal×2≦(+++)<basal×3)	N.E. (N.E. means No Effect)
10 to 1000	1000 to 10000	< 10	10 to 1000	10 to 1000	–	–	–	–	–	–	–	CCCc1nn(C)c2c(=O)[nH]c(-c3cc(CC4CCN(c5ncc(C(=O)NO)cn5)CC4)ccc3OCC)nc12 [Example 1-24, 2-[4-[[4-ethoxy-3-(1-methyl-7-oxo-3-propyl-6H-pyrazolo[4,3-d]pyrimidin-5-yl)phenyl]methyl]-1-piperidyl]pyrimidine-5-carbohydroxamic acid]	–	–
10 to 1000	10 to 1000	< 10	10 to 1000	10 to 1000	–	1000 to 10000	10 to 1000	–	–	–	–	CCCc1nn(C)c2c(=O)[nH]c(-c3cc(N(C)C4CCN(c5ncc(C(=O)NO)cn5)CC4)ccc3OCC)nc12 [Example 1-25]	–	–
–	–	1000 to 10000	–	–	–	–	–	1 to 10	–	–	–	C[C@@H]1CN(Cc2ncccn2)C[C@H]1c1nc2c(cnn2C2CCOCC2)c(=O)[nH]1 [PF-4447943, 6-[(3S,4S)-4-methyl-1-(pyrimidin-2-ylmethyl)pyrrolidin-3-yl]-1-(tetrahydro-2H-pyran-4-yl)-1H-pyrazolo[3,4-d]pyrimidin-4(5H)-one, reference compound]	–	–
–	–	10 to 1000	10 to 1000	–	1 to 10	10 to 1000	10 to 1000	–	71.3 (19.5)^c nmol/Kg	15	1880	CCCc1nn(C)c2c(=O)[nH]c(-c3cc(OC4CCN(c5ncc(C(=O)NO)cn5)CC4)ccc3OCC)nc12 [Example 1-12]	++ (basal×1≦(++)<basal×2)	+++ (basal×2≦(+++)<basal×3)
